For series [1], the system named is β-amyloid protein (Aβ) production/secretion in E35 cells (H4 cells transfected with APP751). Put plainly: Cell-based assay for inhibition of production or secretion of β-amyloid protein (sandwich ELISA of Aβ in culture medium). Also noted: species or system human. The following applies: 24 h with compound, Aβ in medium by sandwich ELISA, read-out: Activity (EC50 class, inhibition of Aβ secreted in culture medium). The procedure:
Cell-Based Assay for Screening of a Compound Which Inhibits Production or Secretion of β-Amyloid Protein
E35 cells which were established by transfecting APP751 gene which is a wild type human β-amyloid protein precursor into human glioma cells (H4 cells), were used to analyze inhibitory activity of a compound against β-amyloid production. The amount of β protein (Aβ) secreted in a culture medium was measured by the sandwich enzyme-linked imunosorbent assay.
E35 cells were seeded in Dulbecco's Modified Eagle's Medium containing 10% inactivated fetal bovine serum on 96-well plates and cultured in humidified air and 5% CO2 at 37° C. in a CO2 incubator. Twenty-four hours after seeding of the cells, a test compound dissolved in DMSO was added to the medium. The DMSO solution of the compound was prepared so as to give the final concentration of DMSO in the medium 0.05%. The cells were cultured for additional twenty-four hours, and then the cultured medium was collected. The medium collected was applied to a 96-well ELISA plate on which a monoclonal antibody 25-1, which recognized Aβ25-35, was immobilized, followed by the incubation at 4° C. for 16 to 20 hours. After washing with a phosphate buffer (pH 7.4), a biotinylated monoclonal antibody MA32-40, which recognizes Aβ1-8, was added to the plate, and the plate was incubated at 4° C. for 2 hours. Then alkaline phosphatase-conjugated streptavidin was added to the plate. Alkaline phosphatase activity was measured by a […] assay using BlouPhos (manufactured by KPL) as a substrate. An amount of Aβ in the medium was calculated using a calibration curve separately created. EC50 of the test compound was presented as the concentration that gives 50% inhibitory activity compared to the control cells which were not treated with the compound.
(In general: In an ELISA, binding on a coated surface is turned into a signal by an enzyme label.)

Read-outs that look alike come from different tables or passages of the source.

The source of these data is US7399775B2, “β-amyloid protein production/secretion inhibitor” (Daiichi Pharmaceutical Co., Ltd., priority 2001, dated 2008).

As to `CNCCN(C)c1cc(C(c2cc(F)ccc2F)S(=O)(=O)c2ccc(Cl)cc2)c(Cl)cn1` (stereo not shown) [Example 397, 5-Chloro-4-[(4-chlorophenylsulfonyl)-(2,5-difluorophenyl)methyl]-2-[N-methyl-N-[2-(methylamino)ethyl]amino]pyridine], in series [1] (Homo sapiens, 24 h), the EC50 is not above 50 nM.

The compound `O=S(=O)(c1ccc(Cl)cc1)C(CCOCCO)c1cc(F)ccc1F` (stereo not shown) [Example 35, 2-[3-[(4-Chlorophenyl)sulfonyl]-3-(2,5-difluorophenyl)propoxy]ethanol] returned a melting point of 41 to 46 °C. Also, the EC50 in series [1] (Homo sapiens, 24 h) lay in the range of 500 to 5000 nM.

As for `O=S(=O)(c1ccc(Cl)cc1)C(c1ccc(C2OCCO2)cn1)c1cc(F)ccc1F` (stereo not shown) [Example 330, 2-[(4-Chlorophenylsulfonyl)-(2,5-difluorophenyl)methyl]-5-(1,3-dioxolan-2-yl)pyridine], the melting point fell in the range of 167 to 168 °C. Also, the EC50 in series [1] (Homo sapiens, 24 h) lay in the range of 50 to 500 nM.

With `O=S(=O)(c1ccc(Cl)cc1)C(c1ccncc1)c1cc(F)ccc1F` (stereo not shown) [Example 142, 4-[[(4-Chlorophenyl)sulfonyl]-(2,5-difluorophenyl)methyl]pyridine], the melting point is 126 to 127 °C. The EC50 in series [1] (Homo sapiens, 24 h) lay in the range of 50 to 500 nM.

In turn, `CCCC(O)C(c1cc(F)ccc1F)S(=O)(=O)c1ccc(Cl)cc1` (stereo not shown) [Example 10, 1-[(4-Chlorophenyl)sulfonyl]-1-(2,5-difluorophenyl)-2-pentanol] yielded a melting point of 134.5 to 135 °C. The EC50 in series [1] (Homo sapiens, 24 h) was 50 to 500 nM.

The compound `O=S(=O)(c1ccc(Cl)cc1)C(c1cc(F)ccc1F)c1ccncc1Cl` (stereo not shown) [Example 343, 3-Chloro-4-[(4-chlorophenylsulfonyl)-(2,5-difluorophenyl)methyl]pyridine] yielded a melting point of 160 to 161 °C. Also, in series [1] (Homo sapiens, 24 h), the EC50 is not above 50 nM.

For `CS(=O)(=O)NCc1ccc(C(c2cc(F)ccc2F)S(=O)(=O)c2ccc(Cl)cc2)nc1` (stereo not shown) [Example 370, N-[[6-(4-Chlorophenylsulfonyl)(2,5-difluorophenyl)methylpyridin-3-yl]methyl]methanesulfonamide], the EC50 in series [1] (Homo sapiens, 24 h) was in the range of 50 to 500 nM.

In turn, `O=S(=O)(c1ccc(Cl)cc1)C(c1cc(F)ccc1F)C1CCCCC1` (stereo not shown) [Example 36, 2-[[(4-Chlorophenyl)sulfonyl](cylcohexyl)methyl]-1,4-difluorobenzene] showed a melting point of 107 to 109 °C. The EC50 in series [1] (Homo sapiens, 24 h) was 50 to 500 nM.

With `O=S(=O)(c1ccc(Cl)cc1)C(c1cc(F)ccc1F)c1cc(N2CCC[C@H]2CO)ncc1Cl` (stereo partly shown) [Example 399], the EC50 in series [1] (Homo sapiens, 24 h) was not above 50 nM.

Regarding `Cc1cccnc1C(c1cc(F)ccc1F)S(=O)(=O)c1ccc(Cl)cc1` (stereo not shown) [Example 136, 2-[[(4-Chlorophenyl)sulfonyl]-(2,5-difluorophenyl)methyl]-3-methylpyridine], the melting point lay in the range of 142 to 143 °C. In series [1] (Homo sapiens, 24 h), the EC50 was not above 50 nM.

`NCC1CN(c2cc(C(c3cc(F)ccc3F)S(=O)(=O)c3ccc(Cl)cc3)c(Cl)cn2)CCO1` (stereo not shown) [Example 402, 2-Aminomethyl-4-[5-chloro-4-[(4-chlorophenylsulfonyl)-(2,5-difluorophenyl)methyl]pyridin-2-yl]morpholine]: the EC50 in series [1] (Homo sapiens, 24 h) was not above 50 nM.

`O=S(=O)(c1ccc(Cl)cc1)C1(c2cc(F)ccc2F)CCCCC1` [Example 33, 2-[1-[(4-Chlorophenyl)sulfonyl]cyclohexyl]-1,4-difluorobenzene] displayed a melting point of 137 to 139 °C. Also, the concentration for a half-maximal effect (EC50) in series [1] (Homo sapiens, 24 h) is not above 50 nM.

The compound `O=C(O)CCc1ccc(C(c2cc(F)ccc2F)S(=O)(=O)c2ccc(Cl)cc2)nc1` (stereo not shown) [Example 334, 3-[6-[(4-Chlorophenylsulfonyl)-(2,5-difluorophenyl)methyl]pyridin-3-yl]propionic Acid] registered a melting point of 158 to 160 °C. For the same compound, in series [1] (Homo sapiens, 24 h), the EC50 was 50 to 500 nM.

As to `O=S(=O)(c1ccc(Cl)cc1)C(c1cc(F)ccc1F)c1cc(NCC[N+]2([O-])CCOCC2)ncc1Cl` (stereo not shown) [Example 349, 4-[2-[5-Chloro-4-[(4-chlorophenylsulfonyl)-(2,5-difluorophenyl)methyl]pyridin-2-yl]aminoethyl]morpholine N-Oxide], the EC50 in series [1] (Homo sapiens, 24 h) was not above 50 nM.

On to `CC(CCC[S+](C)[O-])C(c1cc(F)ccc1F)S(=O)(=O)c1ccc(Cl)cc1` (stereo not shown) [Example 45, 2-[1-[(4-Chlorophenyl)sulfonyl]-2-methyl-5-(methylsulfinyl)pentyl]-1,4-difluorobenzene], for which the melting point is 107 to 112 °C. The EC50 in series [1] (Homo sapiens, 24 h) is not above 50 nM.

In turn, `O=S(=O)(c1ccc(Cl)cc1)C(c1cc(F)ccc1F)C1CCSCC1` (stereo not shown) [Example 288, 4-[[(4-Chlorophenyl)sulfonyl](2,5-difluorophenyl)methyl]tetrahydrothiopyran] came in with a melting point of 150 to 152 °C. For the same compound, the EC50 in series [1] (Homo sapiens, 24 h) was 50 to 500 nM.

Take `[O-][S+](c1ccc(Cl)cc1)C(c1cc(F)ccc1F)c1ccncc1Cl` (stereo not shown) [Example 344, 3-Chloro-4-[(4-chlorophenylsulfinyl)-(2,5-difluorophenyl)methyl]pyridine]: in series [1] (Homo sapiens, 24 h), the EC50 was not above 50 nM.

Compound `CC(CCCS(C)(=O)=O)C(c1cc(F)ccc1F)S(=O)(=O)c1ccc(Cl)cc1` (stereo not shown) [Example 47, 2-[1-[(4-Chlorophenyl)sulfonyl]-2-methyl-5-(methylsulfonyl)pentyl]-1,4-difluorobenzene] yielded a melting point of 142 to 144 °C. Besides, in series [1], the EC50 is not above 50 nM.

Take `O=S(=O)(c1ccc(Cl)cc1)C1(c2cc(F)ccc2F)CCOCC1` [Example 48, 4-[(4-Chlorophenyl)sulfonyl]-4-(2,5-difluorophenyl)tetrahydropyrane]: the melting point lay in the range of 157 to 160 °C. Further, the EC50 in series [1] (Homo sapiens, 24 h) is not above 50 nM.

Regarding `CS(=O)(=O)CCCCC(c1cc(F)ccc1F)S(=O)(=O)c1ccc(Cl)cc1` (stereo not shown) [Example 27 (Compound A), 2-[1-[(4-Chlorophenyl)sulfonyl]-5-(methylsulfonyl)pentyl]-1,4-difluorobenzene], the EC50 in series [1] (Homo sapiens, 24 h) is 50 to 500 nM.

As for `O=S(=O)(c1ccc(Cl)cc1)C(c1ccc(CO)cn1)c1cc(F)ccc1F` (stereo not shown) [Example 331, 2-[(4-chlorophenylsulfonyl)(2,5-difluorophenyl)methyl]-5-(hydroxymethyl)pyridine], the melting point is 151 to 152 °C. Besides, in series [1] (Homo sapiens, 24 h), the concentration giving a half-maximal response (EC50) is 50 to 500 nM.

As for `CSCCCC(C)C(c1cc(F)ccc1F)S(=O)(=O)c1ccc(Cl)cc1` (single isomer, unassigned) [Example 43 (Isomer 43-A), 2-[1-[(4-Chlorophenyl)sulfonyl]-2-methyl-5-(methylthio)pentyl]-1,4-difluorobenzene], the EC50 in series [1] (Homo sapiens, 24 h) fell in the range of 50 to 500 nM.

For the compound `CSCCCC(C)C(c1cc(F)ccc1F)S(=O)(=O)c1ccc(Cl)cc1` (single isomer, unassigned) [Example 43 (Isomer 43-B), 2-[1-[(4-Chlorophenyl)sulfonyl]-2-methyl-5-(methylthio)pentyl]-1,4-difluorobenzene], in series [1], the EC50 was 50 to 500 nM.

Turning to `O=S(=O)(c1ccc(Cl)cc1)C(c1cc(F)ccc1F)c1cc(Cl)ncc1Cl` (stereo not shown) [Example 345, 2,5-Dichloro-4-[(4-chlorophenylsulfonyl)-(2,5-difluorophenyl)methyl]pyridine 0.5 hydrate], the EC50 in series [1] (Homo sapiens, 24 h) was not above 50 nM.

As to `CCCCC(c1cc(F)ccc1F)S(=O)(=O)c1ccc(Cl)cc1` (stereo not shown) [Example 3, 2-[1-[(4-Chlorophenyl)sulfonyl]pentyl]-1,4-difluorobenzene], in series [1] (Homo sapiens, 24 h), the EC50 lay in the range of 50 to 500 nM.

Regarding `CC(CCCCO)(c1cc(F)ccc1F)S(=O)(=O)c1ccc(Cl)cc1` (stereo not shown) [Example 17, 5-(4-Chlorophenylsulfonyl)-5-(2,5-difluorophenyl)-1-hexanol], the EC50 in series [1] (Homo sapiens, 24 h) lay within 500 to 5000 nM.

As to `COC(=O)OCc1ccc(C(c2cc(F)ccc2F)S(=O)(=O)c2ccc(Cl)cc2)nc1` (stereo not shown) [Example 372, [6-(4-Chlorophenylsulfonyl)(2,5-difluorophenyl)methylpyridin-3-yl]methyl Methyl Carbonate], the EC50 in series [1] (Homo sapiens, 24 h) was 50 to 500 nM.

`O=S(=O)(c1ccc(Cl)cc1)C(CC[S+]([O-])CCO)c1cc(F)ccc1F` (stereo not shown) [Example 254, 2-[3-[(4-Chlorophenyl)sulfonyl]-3-(2,5-difluorophenyl)propylsulfinyl]ethanol] returned a melting point of 124 to 132 °C.

In the case of `Cl.NCCCC(c1cc(F)ccc1F)S(=O)(=O)c1ccc(Cl)cc1` (stereo not shown), the melting point lay in the range of 232 to 233 °C.

The compound `CC1CCCC1(c1cc(F)ccc1F)S(=O)(=O)c1ccc(Cl)cc1` (stereo not shown) [Example 279, 2-[1-[(4-Chlorophenyl)sulfonyl]-2-methylcyclopentyl]-1,4-difluorobenzene] registered a melting point of 105 to 109 °C.

In turn, `O=S(=O)(c1ccc(Cl)cc1)C1(c2nnnn2Cc2ccccc2)CCCCC1` [Example 195, 1-Benzyl-5-[1-(4-chlorobenzenesulfonyl)cyclohexyl]-1H-tetrazole] came in with a melting point of 154 to 155 °C.

Turning to `CCCCC(c1cc(F)ccc1F)[S+]([O-])c1ccc(Cl)cc1` (single isomer, unassigned) [Example 2 (Isomer 2-B), 2-[1-[(4-Chlorophenyl)sulfinyl]pentyl]-1,4-difluorobenzene], the EC50 in series [1] (Homo sapiens, 24 h) was 500 to 5000 nM.

One may read the EC50 as the concentration that produces a half-maximal response. A word on the melting point: it is the temperature, or range, at which the solid turns liquid.
